From ChEMBL document CHEMBL4507267 (2021)

Key:
[1] = biological target: Muscle, skeletal receptor tyrosine-protein kinase (Homo sapiens) (UniProt O15146); details: Compound concentration 1000.0 nM
[2] = tested on: Fibroblast growth factor receptor 3 (Homo sapiens), P22607 [G697C]; details: Compound concentration 1000.0 nM
[3] = biological target: Serine/threonine-protein kinase haspin (Homo sapiens) (UniProt Q8TF76); details: Compound concentration 1000.0 nM
[4] = biological target: Tyrosine-protein kinase ZAP-70 (Homo sapiens) (UniProt P43403); details: Compound concentration 1000.0 nM
[5] = biological target: TGF-beta receptor type-2 (Homo sapiens) (UniProt P37173); details: Compound concentration 1000.0 nM
Sequence of TGF-beta receptor type-2 (Homo sapiens) (P37173 whole entry): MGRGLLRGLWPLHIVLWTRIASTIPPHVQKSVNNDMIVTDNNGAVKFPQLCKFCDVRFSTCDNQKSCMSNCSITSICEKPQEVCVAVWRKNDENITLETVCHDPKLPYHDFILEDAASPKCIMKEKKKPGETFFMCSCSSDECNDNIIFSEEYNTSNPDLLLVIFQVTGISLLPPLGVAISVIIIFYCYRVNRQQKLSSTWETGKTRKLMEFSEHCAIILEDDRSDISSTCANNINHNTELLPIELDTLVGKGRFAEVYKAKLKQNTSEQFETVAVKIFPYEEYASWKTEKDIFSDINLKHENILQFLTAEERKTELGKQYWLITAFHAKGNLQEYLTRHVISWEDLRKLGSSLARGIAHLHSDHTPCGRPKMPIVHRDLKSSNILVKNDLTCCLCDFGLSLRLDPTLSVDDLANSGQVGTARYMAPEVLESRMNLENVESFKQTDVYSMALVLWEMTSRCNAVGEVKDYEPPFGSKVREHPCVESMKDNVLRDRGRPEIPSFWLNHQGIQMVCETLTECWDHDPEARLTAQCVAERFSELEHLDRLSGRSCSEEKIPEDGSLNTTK

[6] = biological target: Ephrin type-A receptor 6 (Homo sapiens) (UniProt Q9UF33); details: Compound concentration 1000.0 nM
[7] = tested on: Phosphatidylinositol 4,5-bisphosphate 3-kinase catalytic subunit alpha isoform (Homo sapiens), P42336 [I800L]; details: Compound concentration 1000.0 nM
[8] = tested on: Tyrosine-protein kinase ABL1 (Homo sapiens), P00519 [H396P]; details: Compound concentration 1000.0 nM
[9] = biological target: Insulin receptor (Homo sapiens) (UniProt P06213); details: Compound concentration 1000.0 nM
[10] = biological target: Tyrosine-protein kinase BTK (Homo sapiens) (UniProt Q06187); details: Compound concentration 1000.0 nM
[11] = biological target: Phosphatidylinositol 4-kinase beta (Homo sapiens) (UniProt Q9UBF8); details: Compound concentration 1000.0 nM
Sequence of Phosphatidylinositol 4-kinase beta (Homo sapiens) (Q9UBF8 2-816 limits assumed): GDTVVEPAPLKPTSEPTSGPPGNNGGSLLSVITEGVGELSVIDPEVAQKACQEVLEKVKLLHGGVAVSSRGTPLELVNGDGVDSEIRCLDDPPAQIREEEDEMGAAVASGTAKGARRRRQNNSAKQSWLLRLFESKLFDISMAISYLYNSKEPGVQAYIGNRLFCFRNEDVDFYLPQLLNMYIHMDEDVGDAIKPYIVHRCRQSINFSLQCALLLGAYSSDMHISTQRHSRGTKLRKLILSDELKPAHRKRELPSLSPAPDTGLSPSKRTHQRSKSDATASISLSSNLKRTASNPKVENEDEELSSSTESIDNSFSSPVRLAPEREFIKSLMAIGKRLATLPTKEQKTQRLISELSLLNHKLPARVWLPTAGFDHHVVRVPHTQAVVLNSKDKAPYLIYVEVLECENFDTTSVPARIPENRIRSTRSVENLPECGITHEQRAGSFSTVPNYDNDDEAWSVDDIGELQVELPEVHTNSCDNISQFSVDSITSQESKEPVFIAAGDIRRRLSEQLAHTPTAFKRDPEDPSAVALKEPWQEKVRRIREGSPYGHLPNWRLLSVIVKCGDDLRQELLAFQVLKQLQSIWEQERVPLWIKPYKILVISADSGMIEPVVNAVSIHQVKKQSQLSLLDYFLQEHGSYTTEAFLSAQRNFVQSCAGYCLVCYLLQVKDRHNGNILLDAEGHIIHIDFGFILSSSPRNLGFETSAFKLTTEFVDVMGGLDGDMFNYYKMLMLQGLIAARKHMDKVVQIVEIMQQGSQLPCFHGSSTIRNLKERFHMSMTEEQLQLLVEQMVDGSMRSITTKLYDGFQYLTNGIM

[12] = biological target: Phosphatidylinositol 4,5-bisphosphate 3-kinase catalytic subunit gamma isoform (Homo sapiens) (UniProt P48736); details: Compound concentration 1000.0 nM
[13] = biological target: Serine/threonine-protein kinase VRK2 (Homo sapiens) (UniProt Q86Y07); details: Compound concentration 1000.0 nM
Sequence of Serine/threonine-protein kinase VRK2 (Homo sapiens) (Q86Y07 whole entry): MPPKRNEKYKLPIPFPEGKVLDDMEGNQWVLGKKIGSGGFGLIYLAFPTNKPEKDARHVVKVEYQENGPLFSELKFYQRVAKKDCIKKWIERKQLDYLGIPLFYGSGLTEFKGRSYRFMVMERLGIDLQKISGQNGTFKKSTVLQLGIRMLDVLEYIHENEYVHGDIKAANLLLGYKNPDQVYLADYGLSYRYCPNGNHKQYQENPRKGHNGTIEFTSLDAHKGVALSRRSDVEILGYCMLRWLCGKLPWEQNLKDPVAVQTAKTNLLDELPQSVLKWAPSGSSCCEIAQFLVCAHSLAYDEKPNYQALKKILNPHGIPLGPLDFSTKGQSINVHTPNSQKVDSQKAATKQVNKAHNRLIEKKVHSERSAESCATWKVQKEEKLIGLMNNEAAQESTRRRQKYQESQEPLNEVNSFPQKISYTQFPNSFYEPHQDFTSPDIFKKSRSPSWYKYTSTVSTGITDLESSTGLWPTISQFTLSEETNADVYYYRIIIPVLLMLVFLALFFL

[14] = biological target: Serine/threonine-protein kinase Nek9 (Homo sapiens) (UniProt Q8TD19); details: Compound concentration 1000.0 nM
[15] = biological target: Calcium/calmodulin-dependent protein kinase type II subunit alpha (Homo sapiens) (UniProt Q9UQM7); details: Compound concentration 1000.0 nM
[16] = biological target: Serine/threonine-protein kinase BRSK1 (Homo sapiens) (UniProt Q8TDC3); details: Compound concentration 1000.0 nM
Sequence of Serine/threonine-protein kinase BRSK1 (Homo sapiens) (Q8TDC3 whole entry): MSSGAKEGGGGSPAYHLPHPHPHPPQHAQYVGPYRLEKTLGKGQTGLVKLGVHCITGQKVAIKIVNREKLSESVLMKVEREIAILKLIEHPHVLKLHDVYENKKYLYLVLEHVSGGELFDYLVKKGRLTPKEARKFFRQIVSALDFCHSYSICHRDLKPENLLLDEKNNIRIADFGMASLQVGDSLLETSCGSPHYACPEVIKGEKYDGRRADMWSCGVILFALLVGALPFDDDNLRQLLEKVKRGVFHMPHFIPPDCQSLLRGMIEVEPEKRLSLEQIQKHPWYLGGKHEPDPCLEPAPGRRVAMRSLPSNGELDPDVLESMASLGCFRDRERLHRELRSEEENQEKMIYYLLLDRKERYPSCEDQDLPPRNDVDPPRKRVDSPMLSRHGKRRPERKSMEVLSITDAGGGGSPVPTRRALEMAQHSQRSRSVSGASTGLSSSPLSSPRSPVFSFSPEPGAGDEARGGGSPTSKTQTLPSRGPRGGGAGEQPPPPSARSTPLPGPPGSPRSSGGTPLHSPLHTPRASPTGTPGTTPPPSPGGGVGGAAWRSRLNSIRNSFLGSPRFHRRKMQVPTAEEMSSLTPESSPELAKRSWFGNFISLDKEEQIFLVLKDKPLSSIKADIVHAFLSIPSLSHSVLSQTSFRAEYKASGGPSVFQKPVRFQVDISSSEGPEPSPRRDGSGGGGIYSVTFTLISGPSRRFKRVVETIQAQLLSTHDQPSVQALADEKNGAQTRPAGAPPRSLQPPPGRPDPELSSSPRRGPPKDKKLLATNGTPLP

[17] = biological target: Tyrosine-protein kinase ABL1 (Homo sapiens) (UniProt P00519); details: Compound concentration 1000.0 nM
[18] = biological target: Mitogen-activated protein kinase 7 (Homo sapiens) (UniProt Q13164); details: Compound concentration 1000.0 nM
[19] = biological target: Mitogen-activated protein kinase kinase kinase 20 (Homo sapiens) (UniProt Q9NYL2); details: Compound concentration 1000.0 nM
[20] = biological target: Serine/threonine-protein kinase 10 (Homo sapiens) (UniProt O94804); details: Compound concentration 1000.0 nM
[21] = biological target: Ribosomal protein S6 kinase alpha-6 (Homo sapiens) (UniProt Q9UK32); details: Compound concentration 1000.0 nM
[22] = biological target: Mitogen-activated protein kinase kinase kinase 19 (Homo sapiens) (UniProt Q56UN5); details: Compound concentration 1000.0 nM
[23] = biological target: Sodium-dependent serotonin transporter (Homo sapiens) (UniProt P31645); details: Compound concentration 10.0 uM
[24] = biological target: Muscarinic acetylcholine receptor M5 (Homo sapiens) (UniProt P08912); details: Compound concentration 10.0 uM
[25] = biological target: Aurora kinase B (Homo sapiens) (UniProt Q96GD4); details: Compound concentration 1000.0 nM
[26] = biological target: 5-hydroxytryptamine receptor 2A (Homo sapiens) (UniProt P28223); details: Compound concentration 10.0 uM
Sequence of 5-hydroxytryptamine receptor 2A (Homo sapiens) (P28223 whole entry): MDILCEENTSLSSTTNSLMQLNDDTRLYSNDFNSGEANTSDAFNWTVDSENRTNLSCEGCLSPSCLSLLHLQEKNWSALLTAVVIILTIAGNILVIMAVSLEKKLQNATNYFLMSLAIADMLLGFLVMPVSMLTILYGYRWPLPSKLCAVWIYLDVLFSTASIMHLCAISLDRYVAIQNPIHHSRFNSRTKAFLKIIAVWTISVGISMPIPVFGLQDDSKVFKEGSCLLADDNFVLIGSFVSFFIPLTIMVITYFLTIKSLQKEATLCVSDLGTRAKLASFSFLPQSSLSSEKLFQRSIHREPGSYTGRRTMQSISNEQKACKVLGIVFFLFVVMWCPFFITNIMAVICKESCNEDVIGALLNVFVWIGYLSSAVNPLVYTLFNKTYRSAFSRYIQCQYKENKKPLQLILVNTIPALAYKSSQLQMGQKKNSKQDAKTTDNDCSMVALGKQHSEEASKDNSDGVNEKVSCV

[27] = biological target: Serine/threonine-protein kinase PLK2 (Homo sapiens) (UniProt Q9NYY3); details: Compound concentration 1000.0 nM
[28] = biological target: Tyrosine-protein kinase Lyn (Homo sapiens) (UniProt P07948); details: Compound concentration 1000.0 nM
[29] = biological target: Calcium/calmodulin-dependent protein kinase kinase 2 (Homo sapiens) (UniProt Q96RR4); details: Compound concentration 1000.0 nM
[30] = biological target: Rhodopsin kinase GRK1 (Homo sapiens) (UniProt Q15835); details: Compound concentration 1000.0 nM
Sequence of Rhodopsin kinase GRK1 (Homo sapiens) (Q15835 whole entry): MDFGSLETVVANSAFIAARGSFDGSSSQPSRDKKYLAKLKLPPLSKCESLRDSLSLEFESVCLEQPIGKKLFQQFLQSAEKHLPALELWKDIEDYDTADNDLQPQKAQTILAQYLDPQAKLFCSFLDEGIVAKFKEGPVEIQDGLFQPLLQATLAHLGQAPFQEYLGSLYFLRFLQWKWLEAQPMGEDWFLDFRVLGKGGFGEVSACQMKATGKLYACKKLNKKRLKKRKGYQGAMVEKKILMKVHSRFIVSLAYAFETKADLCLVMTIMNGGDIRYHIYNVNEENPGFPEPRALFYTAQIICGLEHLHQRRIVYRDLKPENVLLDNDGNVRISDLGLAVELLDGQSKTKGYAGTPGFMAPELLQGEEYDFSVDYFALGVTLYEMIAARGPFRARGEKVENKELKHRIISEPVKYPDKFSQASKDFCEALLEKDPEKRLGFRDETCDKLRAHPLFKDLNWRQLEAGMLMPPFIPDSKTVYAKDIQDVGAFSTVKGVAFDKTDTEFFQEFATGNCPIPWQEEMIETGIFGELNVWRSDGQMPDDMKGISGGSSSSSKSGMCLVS

[31] = biological target: Ephrin type-A receptor 3 (Homo sapiens) (UniProt P29320); details: Compound concentration 1000.0 nM
[32] = biological target: 5-hydroxytryptamine receptor 1B (Homo sapiens) (UniProt P28222); details: Compound concentration 10.0 uM
[33] = biological target: Ephrin type-A receptor 5 (Homo sapiens) (UniProt P54756); details: Compound concentration 1000.0 nM
[34] = biological target: Aurora kinase A (Homo sapiens) (UniProt O14965); details: Compound concentration 1000.0 nM
[35] = biological target: Serine/threonine-protein kinase 38 (Homo sapiens) (UniProt Q15208); details: Compound concentration 1000.0 nM
Sequence of Serine/threonine-protein kinase 38 (Homo sapiens) (Q15208 2-465 limits assumed): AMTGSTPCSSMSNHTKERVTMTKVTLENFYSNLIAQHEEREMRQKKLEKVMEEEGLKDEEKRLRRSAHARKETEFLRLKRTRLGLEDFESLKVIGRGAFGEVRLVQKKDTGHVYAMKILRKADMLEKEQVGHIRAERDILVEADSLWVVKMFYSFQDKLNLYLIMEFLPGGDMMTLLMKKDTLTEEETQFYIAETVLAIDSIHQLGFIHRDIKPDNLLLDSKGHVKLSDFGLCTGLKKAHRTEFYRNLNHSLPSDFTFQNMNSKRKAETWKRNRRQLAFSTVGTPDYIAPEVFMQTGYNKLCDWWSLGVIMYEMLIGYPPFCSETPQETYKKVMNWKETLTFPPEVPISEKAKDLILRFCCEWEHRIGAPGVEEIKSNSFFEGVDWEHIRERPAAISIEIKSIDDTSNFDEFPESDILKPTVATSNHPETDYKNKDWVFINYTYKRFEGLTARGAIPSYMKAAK

[36] = biological target: BDNF/NT-3 growth factors receptor (Homo sapiens) (UniProt Q16620); details: Compound concentration 1000.0 nM
[37] = biological target: Fibroblast growth factor receptor 4 (Homo sapiens) (UniProt P22455); details: Compound concentration 1000.0 nM
[38] = biological target: Dual specificity mitogen-activated protein kinase kinase 4 (Homo sapiens) (UniProt P45985); details: Compound concentration 1000.0 nM
[39] = biological target: Phosphatidylinositol 3-kinase C2 domain-containing subunit gamma (Homo sapiens) (UniProt O75747); details: Compound concentration 1000.0 nM
[40] = biological target: Phosphatidylinositol 5-phosphate 4-kinase type-2 gamma (Homo sapiens) (UniProt Q8TBX8); details: Compound concentration 1000.0 nM
[41] = biological target: Tyrosine-protein kinase Srms (Homo sapiens) (UniProt Q9H3Y6); details: Compound concentration 1000.0 nM
[42] = tested on: Receptor-type tyrosine-protein kinase FLT3 (Homo sapiens), P36888 [K663Q]; details: Compound concentration 1000.0 nM
[43] = biological target: Non-receptor tyrosine-protein kinase TYK2 (Homo sapiens) (UniProt P29597); details: Compound concentration 1000.0 nM
[44] = biological target: RAC-alpha serine/threonine-protein kinase (Homo sapiens) (UniProt P31749); details: Compound concentration 1000.0 nM
[45] = biological target: Ephrin type-B receptor 4 (Homo sapiens) (UniProt P54760); details: Compound concentration 1000.0 nM

Sequence of Muscle, skeletal receptor tyrosine-protein kinase (Homo sapiens) (O15146 whole entry): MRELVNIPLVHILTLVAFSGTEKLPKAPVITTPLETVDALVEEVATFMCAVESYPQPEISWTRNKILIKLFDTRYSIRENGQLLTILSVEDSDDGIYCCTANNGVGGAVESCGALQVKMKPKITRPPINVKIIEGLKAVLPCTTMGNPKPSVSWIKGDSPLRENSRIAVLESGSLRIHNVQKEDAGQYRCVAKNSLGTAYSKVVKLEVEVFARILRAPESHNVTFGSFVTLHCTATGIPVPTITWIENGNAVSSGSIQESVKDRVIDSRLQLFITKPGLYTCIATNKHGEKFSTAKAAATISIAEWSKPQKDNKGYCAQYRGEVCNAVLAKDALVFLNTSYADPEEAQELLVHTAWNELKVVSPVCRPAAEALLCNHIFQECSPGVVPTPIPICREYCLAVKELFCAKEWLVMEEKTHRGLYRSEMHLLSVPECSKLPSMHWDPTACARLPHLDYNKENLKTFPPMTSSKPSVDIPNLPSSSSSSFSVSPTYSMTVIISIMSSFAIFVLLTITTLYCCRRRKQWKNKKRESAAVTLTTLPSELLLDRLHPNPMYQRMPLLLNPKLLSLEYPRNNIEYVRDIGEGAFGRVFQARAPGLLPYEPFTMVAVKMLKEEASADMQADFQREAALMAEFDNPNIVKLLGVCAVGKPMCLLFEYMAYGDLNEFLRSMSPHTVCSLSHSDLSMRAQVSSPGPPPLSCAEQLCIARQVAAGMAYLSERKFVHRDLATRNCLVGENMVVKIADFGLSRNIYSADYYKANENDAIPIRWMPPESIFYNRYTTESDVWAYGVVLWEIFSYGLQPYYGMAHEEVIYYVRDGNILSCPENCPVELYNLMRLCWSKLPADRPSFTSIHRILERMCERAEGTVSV

Cc1c(NC(=O)c2cc(C(N)=O)nc3cc(F)ccc23)c(C(F)(F)F)nn1Cc1ccc(C(C)(C)C)cc1 [BAY-588]
inactive: residual activity [1] 97% | residual activity [2] 97% | residual activity [3] 100% | residual activity [4] 100% | residual activity [5] 100% | residual activity [6] 100% | residual activity [7] 100% | residual activity [8] 100% | residual activity [9] 100% | residual activity [10] 100% | residual activity [11] 72% | residual activity [12] 100% | residual activity [13] 95% | residual activity [14] 100% | residual activity [15] 89% | residual activity [16] 100% | residual activity [17] 100% | residual activity [18] 100% | residual activity [19] 100% | residual activity [20] 88% | residual activity [21] 100% | residual activity [22] 85% | inhibition [23] -3.13% | inhibition [24] 7.12% | residual activity [25] 100% | inhibition [26] -0.878% | residual activity [27] 100% | residual activity [28] 99% | residual activity [29] 78% | residual activity [30] 83% | residual activity [31] 98% | inhibition [32] -7.67% | residual activity [33] 74% | residual activity [34] 100% | residual activity [35] 93% | residual activity [36] 100% | residual activity [37] 100% | residual activity [38] 100% | residual activity [39] 100% | residual activity [40] 76% | residual activity [41] 100% | residual activity [42] 100% | residual activity [43] 100% | residual activity [44] 93% | residual activity [45] 100%

Cc1c(NC(=O)c2cc(C(N)=O)nc3cc(F)ccc23)c(C(F)(F)F)nn1Cc1ccc(C#N)cc1 [BAY-876]
inactive: residual activity [1] 95% | residual activity [2] 89% | residual activity [3] 67% | residual activity [4] 84% | residual activity [5] 100% | residual activity [6] 87% | residual activity [7] 78% | residual activity [8] 81% | residual activity [9] 100% | residual activity [10] 70% | residual activity [11] 77% | residual activity [12] 80% | residual activity [13] 72% | residual activity [14] 95% | residual activity [15] 100% | residual activity [16] 100% | residual activity [17] 78% | residual activity [18] 95% | residual activity [19] 100% | residual activity [20] 79% | residual activity [21] 66% | residual activity [22] 72% | inhibition [23] 0.483% | inhibition [24] 4.88% | residual activity [25] 72% | inhibition [26] 14.3% | residual activity [27] 78% | residual activity [28] 100% | residual activity [29] 92% | residual activity [30] 87% | residual activity [31] 90% | inhibition [32] 2.6% | residual activity [33] 100% | residual activity [34] 89% | residual activity [35] 94% | residual activity [36] 54% | residual activity [37] 100% | residual activity [38] 86% | residual activity [39] 61% | residual activity [40] 100% | residual activity [41] 62% | residual activity [42] 93% | residual activity [43] 77% | residual activity [44] 91% | residual activity [45] 100%
